According to ChEMBL document CHEMBL5042477, “Potent Cyclic Peptide Inhibitors of FXIIa Discovered by mRNA Display with Genetic Code Reprogramming” (J Med Chem, 2021):
Where a SMILES comes first, the peptide text is derived from it. Bridges are numbered along the chain shown (N, C = ends). [ ]: non-standard residue; d: D form. Phe(3-CF3) = N[C@@H](Cc1cccc(C(F)(F)F)c1)C(=O)O; Tyr(3-F) = N[C@@H](Cc1ccc(O)c(F)c1)C(=O)O; Phe(3-CN) = N#Cc1cccc(C[C@H](N)C(=O)O)c1; Phe(4-CN) = N#Cc1ccc(C[C@H](N)C(=O)O)cc1; Phe(3-F) = N[C@@H](Cc1cccc(F)c1)C(=O)O; Phe(3-Me) = Cc1cccc(C[C@H](N)C(=O)O)c1; Phe(4-F) = N[C@@H](Cc1ccc(F)cc1)C(=O)O; 2Pal = N[C@@H](Cc1ccccn1)C(=O)O; 3Pal = N[C@@H](Cc1cccnc1)C(=O)O; 4Pal = N[C@@H](Cc1ccncc1)C(=O)O; Orn = NCCC[C@H](N)C(=O)O

Biological target: T1, Coagulation factor XII (Homo sapiens, UniProt P00748)
T1 sequence (P00748 whole entry): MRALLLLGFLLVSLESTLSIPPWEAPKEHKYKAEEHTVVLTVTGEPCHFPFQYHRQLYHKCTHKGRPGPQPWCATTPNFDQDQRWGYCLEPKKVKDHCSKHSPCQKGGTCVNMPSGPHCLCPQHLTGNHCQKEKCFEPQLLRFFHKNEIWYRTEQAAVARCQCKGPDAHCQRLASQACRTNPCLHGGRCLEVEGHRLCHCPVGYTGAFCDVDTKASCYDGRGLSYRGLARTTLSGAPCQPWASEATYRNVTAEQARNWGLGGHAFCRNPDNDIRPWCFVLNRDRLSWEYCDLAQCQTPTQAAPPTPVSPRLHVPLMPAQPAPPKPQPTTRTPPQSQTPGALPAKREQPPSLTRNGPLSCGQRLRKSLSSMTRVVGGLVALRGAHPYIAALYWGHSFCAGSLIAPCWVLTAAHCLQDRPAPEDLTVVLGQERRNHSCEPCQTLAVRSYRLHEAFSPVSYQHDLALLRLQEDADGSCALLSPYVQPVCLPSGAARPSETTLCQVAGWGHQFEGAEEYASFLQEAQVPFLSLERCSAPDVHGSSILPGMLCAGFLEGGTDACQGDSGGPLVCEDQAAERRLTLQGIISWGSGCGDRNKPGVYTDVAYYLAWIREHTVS
Assay: Inhibition of human factor 12a using H-D-Pro-Phe-Arg-p-nitroanilide as chromogenic substrate assessed as liberation of p-nitroaniline measured every 5 mins for 60 min by multimode plate reader analysis

Row | IC50 [nM] | SMILES
1 | 290000 | CC(C)C[C@@H]1NC(=O)[C@H](C)NC(=O)CSC[C@@H](C(N)=O)NC(=O)CNC(=O)CNC(=O)[C@H](CCC(N)=O)NC(=O)[C@H](CC(N)=O)NC(=O)[C@H]([C@@H](C)O)NC(=O)[C@@H]2CCCN2C(=O)[C@H](CCCCN)NC(=O)[C@H](CC(C)C)NC(=O)[C@H](CCCNC(=N)N)NC1=O ({CH2CO}-ALRLKPTNQGGC-NH2; thioether N-12)
2 | 46 | CC(C)C[C@@H]1NC(=O)[C@H](Cc2ccc(O)cc2)NC(=O)CSC[C@@H](C(N)=O)NC(=O)CNC(=O)CNC(=O)[C@H](CCCNC(=N)N)NC(=O)[C@H](CC(=O)O)NC(=O)[C@H](CCCCN)NC(=O)[C@@H]2CCCN2C(=O)[C@H](CCCNC(=N)N)NC(=O)[C@H](Cc2ccc(F)cc2)NC(=O)[C@H](CCCNC(=N)N)NC1=O ({CH2CO}-YLR[Phe(4-F)]RPKDRGGC-NH2; thioether N-12)
3 | 170 | CC(C)C[C@@H]1NC(=O)[C@H](Cc2ccc(O)cc2)NC(=O)CSC[C@@H](C(N)=O)NC(=O)CNC(=O)CNC(=O)[C@H](CCCNC(=N)N)NC(=O)[C@H](CC(=O)O)NC(=O)[C@H](CCCCN)NC(=O)[C@@H]2CCCN2C(=O)[C@H](CCCNC(=N)N)NC(=O)[C@H](Cc2cccnc2)NC(=O)[C@H](CCCNC(=N)N)NC1=O ({CH2CO}-YLR[3Pal]RPKDRGGC-NH2; thioether N-12)
4 | 73 | Cc1cccc(C[C@@H]2NC(=O)[C@H](CCCNC(=N)N)NC(=O)[C@H](CC(C)C)NC(=O)[C@H](Cc3ccc(O)cc3)NC(=O)CSC[C@@H](C(N)=O)NC(=O)CNC(=O)CNC(=O)[C@H](CCCNC(=N)N)NC(=O)[C@H](CC(=O)O)NC(=O)[C@H](CCCCN)NC(=O)[C@@H]3CCCN3C(=O)[C@H](CCCNC(=N)N)NC2=O)c1 ({CH2CO}-YLR[Phe(3-Me)]RPKDRGGC-NH2; thioether N-12)
5 | 590 | CC(C)C[C@@H]1NC(=O)[C@H](Cc2ccc(O)cc2)NC(=O)CSC[C@@H](C(N)=O)NC(=O)CNC(=O)CNC(=O)[C@H](CCC(N)=O)NC(=O)[C@H](C)NC(=O)[C@H]([C@@H](C)O)NC(=O)[C@@H]2CCCN2C(=O)[C@H](CCCCN)NC(=O)[C@H](CC(C)C)NC(=O)[C@H](CCCNC(=N)N)NC1=O ({CH2CO}-YLRLKPTAQGGC-NH2; thioether N-12)
6 | 71000 | CC(C)C[C@@H]1NC(=O)[C@H](Cc2ccc(O)cc2)NC(=O)CSC[C@@H](C(N)=O)NC(=O)CNC(=O)CNC(=O)[C@H](CCCNC(=N)N)NC(=O)[C@H](CC(=O)O)NC(=O)[C@H](CCCCN)NC(=O)[C@@H]2CCCN2C(=O)[C@H](CCCNC(=N)N)NC(=O)[C@H](Cc2ccccc2)NC(=O)[C@H](CCCN)NC1=O ({CH2CO}-YL[Orn]FRPKDRGGC-NH2; thioether N-12)
7 | 66 | CC(C)C[C@@H]1NC(=O)[C@H](Cc2ccc(O)cc2)NC(=O)CSC[C@@H](C(N)=O)NC(=O)CNC(=O)CNC(=O)[C@H](CCCNC(=N)N)NC(=O)[C@H](CC(=O)O)NC(=O)[C@H](CCCCN)NC(=O)[C@@H]2CCCN2C(=O)[C@H](CCCNC(=N)N)NC(=O)[C@H](Cc2cccc(F)c2)NC(=O)[C@H](CCCNC(=N)N)NC1=O ({CH2CO}-YLR[Phe(3-F)]RPKDRGGC-NH2; thioether N-12)
8 | 50 | CC(C)C[C@@H]1NC(=O)[C@H](Cc2ccc(O)cc2)NC(=O)CSC[C@@H](C(N)=O)NC(=O)CNC(=O)CNC(=O)[C@H](CCCNC(=N)N)NC(=O)[C@H](C)NC(=O)[C@H](CCCCN)NC(=O)[C@@H]2CCCN2C(=O)[C@H](CCCNC(=N)N)NC(=O)[C@H](Cc2ccccc2)NC(=O)[C@H](CCCNC(=N)N)NC1=O ({CH2CO}-YLRFRPKARGGC-NH2; thioether N-12)
9 | 90 | CC(C)C[C@@H]1NC(=O)[C@H](Cc2ccc(O)cc2)NC(=O)CSC[C@@H](C(N)=O)NC(=O)CNC(=O)CNC(=O)[C@H](CCCNC(=N)N)NC(=O)[C@H](CC(=O)O)NC(=O)[C@H](CCCCN)NC(=O)[C@@H]2CCCN2C(=O)[C@H](CCCNC(=N)N)NC(=O)[C@H](Cc2ccc(C#N)cc2)NC(=O)[C@H](CCCNC(=N)N)NC1=O ({CH2CO}-YLR[Phe(4-CN)]RPKDRGGC-NH2; thioether N-12)

Further lines, the molecule ahead of its results:

Row | SMILES | IC50 [nM]
10 | CC(C)C[C@@H]1NC(=O)[C@H](Cc2ccc(O)cc2)NC(=O)CSC[C@@H](C(N)=O)NC(=O)[C@H](CCCNC(=N)N)NC(=O)[C@H](Cc2ccccc2)NC(=O)[C@H](CCCNC(=N)N)NC1=O ({CH2CO}-YLRFRC-NH2; thioether N-6) | 200000
11 | CC(C)C[C@@H]1NC(=O)[C@H](Cc2ccccn2)NC(=O)CSC[C@@H](C(N)=O)NC(=O)CNC(=O)CNC(=O)[C@H](CCCNC(=N)N)NC(=O)[C@H](CC(=O)O)NC(=O)[C@H](CCCCN)NC(=O)[C@@H]2CCCN2C(=O)[C@H](CCCNC(=N)N)NC(=O)[C@H](Cc2ccccc2)NC(=O)[C@H](CCCNC(=N)N)NC1=O ({CH2CO}-[2Pal]LRFRPKDRGGC-NH2; thioether N-12) | 11000
12 | CC(C)C[C@@H]1NC(=O)[C@H](Cc2ccc(O)cc2)NC(=O)CSC[C@@H](C(N)=O)NC(=O)CNC(=O)CNC(=O)[C@H](CCCNC(=N)N)NC(=O)[C@H](CC(=O)O)NC(=O)[C@H](CCCCN)NC(=O)[C@@H]2CCCN2C(=O)[C@H](CCCNC(=N)N)NC(=O)[C@H](Cc2cccc(C#N)c2)NC(=O)[C@H](CCCNC(=N)N)NC1=O ({CH2CO}-YLR[Phe(3-CN)]RPKDRGGC-NH2; thioether N-12) | 160
13 | CC(C)C[C@@H]1NC(=O)[C@H](Cc2ccc(O)c(F)c2)NC(=O)CSC[C@@H](C(N)=O)NC(=O)CNC(=O)CNC(=O)[C@H](CCCNC(=N)N)NC(=O)[C@H](CC(=O)O)NC(=O)[C@H](CCCCN)NC(=O)[C@@H]2CCCN2C(=O)[C@H](CCCNC(=N)N)NC(=O)[C@H](Cc2ccccc2)NC(=O)[C@H](CCCNC(=N)N)NC1=O ({CH2CO}-[Tyr(3-F)]LRFRPKDRGGC-NH2; thioether N-12) | 150
14 | CC(C)C[C@@H]1NC(=O)[C@H](Cc2cccc(C(F)(F)F)c2)NC(=O)CSC[C@@H](C(N)=O)NC(=O)CNC(=O)CNC(=O)[C@H](CCCNC(=N)N)NC(=O)[C@H](CC(=O)O)NC(=O)[C@H](CCCCN)NC(=O)[C@@H]2CCCN2C(=O)[C@H](CCCNC(=N)N)NC(=O)[C@H](Cc2ccccc2)NC(=O)[C@H](CCCNC(=N)N)NC1=O ({CH2CO}-[Phe(3-CF3)]LRFRPKDRGGC-NH2; thioether N-12) | 84000
15 | CC(C)C[C@@H]1NC(=O)[C@H](Cc2ccncc2)NC(=O)CSC[C@@H](C(N)=O)NC(=O)CNC(=O)CNC(=O)[C@H](CCCNC(=N)N)NC(=O)[C@H](CC(=O)O)NC(=O)[C@H](CCCCN)NC(=O)[C@@H]2CCCN2C(=O)[C@H](CCCNC(=N)N)NC(=O)[C@H](Cc2ccccc2)NC(=O)[C@H](CCCNC(=N)N)NC1=O ({CH2CO}-[4Pal]LRFRPKDRGGC-NH2; thioether N-12) | 12000
16 | CC(C)C[C@@H]1NC(=O)[C@H](Cc2ccc(C#N)cc2)NC(=O)CSC[C@@H](C(N)=O)NC(=O)CNC(=O)CNC(=O)[C@H](CCCNC(=N)N)NC(=O)[C@H](CC(=O)O)NC(=O)[C@H](CCCCN)NC(=O)[C@@H]2CCCN2C(=O)[C@H](CCCNC(=N)N)NC(=O)[C@H](Cc2ccccc2)NC(=O)[C@H](CCCNC(=N)N)NC1=O ({CH2CO}-[Phe(4-CN)]LRFRPKDRGGC-NH2; thioether N-12) | 8100
